Experiments:
Experiment in all cases: relative viability (nuclei count vs DMSO), 5 days (fraction); higher = more cells survive
[1] = compound: OCc1c[nH]c2ccccc12 [Indole-3-carbinol] + CC(=O)c1c(C)c2cnc(Nc3ccc(N4CCNCC4)cn3)nc2n(C2CCCC2)c1=O [Palbociclib] (partner 0.5 µM)
Summary of the method: (§1)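 Lung cancer cell lines were pin-tool dosed in 1536-well plates on the day after seeding, with either a lone drug or a fixed anchor-drug dose plus five library-drug doses (not always all listed) in √10 steps. Nuclei were counted on 4× images after 5 days. Relative viability is the ratio of treated-well to vehicle-well nuclei counts, with each value a median of duplicate plates.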

[2] = compound: OCc1c[nH]c2ccccc12 [Indole-3-carbinol] + Cc1cc(Nc2cc(N3CCN(C)CC3)nc(Sc3ccc(NC(=O)C4CC4)cc3)n2)n[nH]1 [Tozasertib] (partner 0.1 µM)
Summary of the method: as §1

[3] = compound: OCc1c[nH]c2ccccc12 [Indole-3-carbinol] + Cc1nc(Nc2ncc(C(=O)Nc3c(C)cccc3Cl)s2)cc(N2CCN(CCO)CC2)n1 [Dasatinib] (partner 0.075 µM)
Summary of the method: as §1

[4] = compound: OCc1c[nH]c2ccccc12 [Indole-3-carbinol] + CC(=O)Nc1cccc(-n2c(=O)n(C3CC3)c(=O)c3c(Nc4ccc(I)cc4F)n(C)c(=O)c(C)c32)c1 [Trametinib] (partner 0.02 µM)
Summary of the method: as §1

[5] = compound: OCc1c[nH]c2ccccc12 [Indole-3-carbinol] + NC(=O)Nc1cc(-c2cccc(F)c2)sc1C(=O)N[C@H]1CCCNC1 [AZD7762] (partner 0.2 µM)
Summary of the method: as §1

Row | Cell Line | relative viability ([1]; first compound 0.253 µM) | relative viability ([1]; first compound 0.8 µM) | relative viability ([1]; first compound 2.53 µM) | relative viability ([1]; first compound 8 µM) | relative viability ([2]; first compound 0.253 µM) | relative viability ([2]; first compound 0.8 µM) | relative viability ([2]; first compound 2.53 µM) | relative viability ([2]; first compound 8 µM) | relative viability ([3]; first compound 0.253 µM) | relative viability ([3]; first compound 0.8 µM) | relative viability ([3]; first compound 2.53 µM) | relative viability ([3]; first compound 8 µM) | relative viability ([4]; first compound 0.253 µM) | relative viability ([4]; first compound 0.8 µM) | relative viability ([4]; first compound 2.53 µM) | relative viability ([4]; first compound 8 µM) | relative viability ([5]; first compound 0.253 µM) | relative viability ([5]; first compound 0.8 µM) | relative viability ([5]; first compound 2.53 µM) | relative viability ([5]; first compound 8 µM)
1 | ChaGo-K-1 | 0.942 | 0.939 | 0.994 | 0.968 | 0.218 | 0.219 | 0.231 | 0.211 | 0.583 | 0.568 | 0.709 | 0.604 | 0.91 | 0.905 | 0.832 | 0.885 | 1 | 0.853 | 0.932 | 0.869
2 | PC-14 | 0.538 | 0.509 | 0.541 | 0.462 | 0.578 | 0.585 | 0.633 | 0.554 | 0.265 | 0.287 | 0.27 | 0.26 | 0.7 | 0.729 | 0.818 | 0.711 | 0.342 | 0.315 | 0.331 | 0.327
3 | NCI-H1437 | 0.296 | 0.346 | 0.296 | 0.305 | 0.412 | 0.439 | 0.421 | 0.424 | 0.386 | 0.445 | 0.35 | 0.541 | 0.549 | 0.558 | 0.459 | 0.458 | 1.21 | 1.22 | 1.15 | 1.09
4 | NCI-H1734 | 0.352 | 0.376 | 0.331 | 0.31 | 0.276 | 0.263 | 0.259 | 0.27 | 0.441 | 0.458 | 0.542 | 0.399 | 0.676 | 0.762 | 0.617 | 0.651 | 0.519 | 0.601 | 0.551 | 0.512
5 | LK-2 | 0.674 | 0.489 | 1.05 | 0.703 | 0.162 | 0.167 | 0.194 | 0.17 | 0.262 | 0.297 | 0.299 | 0.273 | 0.674 | 0.538 | 0.812 | 0.732 | 0.454 | 0.363 | 0.324 | 0.539
6 | HCC-15 | 0.804 | 0.773 | 0.733 | 0.724 | 0.348 | 0.52 | 0.495 | 0.398 | 0.615 | 0.745 | 0.611 | 0.607 | 0.414 | 0.458 | 0.391 | 0.395 | 1.31 | 1.14 | 1.38 | 1.26
7 | HCC-366 | 0.419 | 0.384 | 0.455 | 0.356 | 0.103 | 0.125 | 0.0939 | 0.196 | 0.626 | 0.721 | 0.724 | 0.601 | 0.358 | 0.322 | 0.422 | 0.304 | 0.265 | 0.242 | 0.355 | 0.258
8 | NCI-H650 | 0.311 | 0.338 | 0.352 | 0.307 | 0.743 | 0.767 | 0.805 | 0.681 | 0.472 | 0.488 | 0.444 | 0.447 | 1.13 | 0.958 | 1.04 | 0.956 | 1.01 | 1.21 | 0.967 | 1.04
